Biological target: T1, multimeric extracellular GPBP (Homo sapiens, UniProt Q9Y5P4)
T1 construct: made in house; host or cells: Sf9 insect cells (baculovirus), purified from culture medium
T1 sequence (Q9Y5P4 1-624): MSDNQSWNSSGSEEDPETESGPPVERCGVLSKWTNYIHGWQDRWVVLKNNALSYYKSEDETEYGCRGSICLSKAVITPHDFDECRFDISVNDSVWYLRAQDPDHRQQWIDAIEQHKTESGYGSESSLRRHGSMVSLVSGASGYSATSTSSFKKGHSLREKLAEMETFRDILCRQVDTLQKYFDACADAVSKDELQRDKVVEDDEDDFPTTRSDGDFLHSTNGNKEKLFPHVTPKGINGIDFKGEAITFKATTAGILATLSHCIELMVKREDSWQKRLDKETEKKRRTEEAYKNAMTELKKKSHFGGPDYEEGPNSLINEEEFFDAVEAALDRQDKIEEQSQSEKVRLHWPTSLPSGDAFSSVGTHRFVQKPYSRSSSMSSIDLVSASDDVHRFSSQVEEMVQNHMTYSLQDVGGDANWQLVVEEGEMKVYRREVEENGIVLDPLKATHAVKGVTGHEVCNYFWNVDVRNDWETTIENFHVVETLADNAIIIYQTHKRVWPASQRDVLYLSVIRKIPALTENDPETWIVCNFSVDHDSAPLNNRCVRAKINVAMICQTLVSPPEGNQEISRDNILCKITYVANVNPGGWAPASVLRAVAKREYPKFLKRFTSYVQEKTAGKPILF
Assay: In vitro phosphorylation assay with multimeric extracellular GPBP
Format: biochemical
Details: T12 50 μM; autophosphorylation, γ[32P]ATP; FIG. 2
Procedure: FIG. 2. […] Multimeric extracellular and trimeric intracellular GPBP were purified by affinity chromatography and subsequent gel filtration chromatography, and used for in vitro phosphorylation assays in absence (−) or presence (+) of T12 (50 μM). Reactions were subjected to SDS-PAGE, Western blot onto PVDF membrane and autoradiography, and further protein detected with anti-FLAG primary antibodies. Autoradiography and anti-FLAG® bands were quantified with WCIF IMAGEJ® software, and the normalized kinase activity estimated. Shown are normalized kinase activities. […] Samples were analyzed in triplicate and the data represents the Mean (±SEM) of three independent assays.
FLAG®-tagged GPBP was expressed using Bac-to-Bac® Baculovirus Expression System. […] Finally, purified protein was quantified with Bio-Rad Protein Assay and stored at −20° C. […]
Typically, about 270 ng of purified FLAG®-GPBP protein, either extracellular multimer or intracellular trimer, were incubated in presence or absence of T12 […] in a kinase assay buffer containing 25 mM disodium β-glycerophosphate, 8 mM MgCl2, 0.5 mM EDTA, 0.5 mM EGTA, 1 mM DTT, 5 mM MnCl2 during 10 min at 37° C. […] Then reactions were stopped with SDS-PAGE loading buffer and heat (95° C., 3 min) and analyzed by SDS-PAGE, electro-transference to PVDF membrane (Merck Millipore) and autoradiography. […]

## COc1ccc(-c2ccc(-c3cccc(C)c3)c(C)c2)c(CCC(=O)O)c1 [T12, 3-[4″-methoxy-3,2′-dimethyl-(1,1′;4′,1″)terphenyl-2″-yl] propionic acid]
  normalized kinase activity of GPBP: targeted extracellular GPBP multimer
